From PubChem BioAssay AID248 (DTP/NCI, 2004)
Several values for one entry are separate records, joined by “and”; a condition that tells them apart may be missing. Equal entries are not always repeated. Inconclusive results and toxic doses are left out. Cut-off read from the data, not from the text of the source: active = T/C of 150% or more; inactive = T/C below 125%.

System: L1210 leukemia ip in BDF1 mice, survival T/C
Test: NCI In Vivo Anticancer Drug Screen. Data for tumor model L1210 Leukemia (intraperitoneal) in B6D2F1 (BDF1) mice
Settings: endpoint: mean survival time, higher = longer survival
In short: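 Survival endpoint. Drug-treated group vs vehicle group, expressed as T divided by C. Tumor passaged by transplantation.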

[1] = dose: 100.0 mg/kg/injection, schedule: Q04DX003 (ip), vehicle: Klucel (hydroxypropylcellulose) (HPC)
[2] = dose: 150.0 mg/kg/injection, schedule: Q04DX003 (ip), vehicle: Klucel (hydroxypropylcellulose) (HPC)
[3] = dose: 100.0 mg/kg/injection, schedule: Q01DX001 (ip), vehicle: carboxymethylcellulose (CMC)
[4] = dose: 200.0 mg/kg/injection, schedule: Q01DX001 (ip), vehicle: carboxymethylcellulose (CMC)
[5] = dose: 400.0 mg/kg/injection, schedule: Q01DX001 (ip), vehicle: carboxymethylcellulose (CMC)
[6] = dose: 50.0 mg/kg/injection, schedule: Q04DX002 (ip), vehicle: Klucel (hydroxypropylcellulose) (HPC)
[7] = dose: 100.0 mg/kg/injection, schedule: Q04DX002 (ip), vehicle: Klucel (hydroxypropylcellulose) (HPC)
[8] = dose: 200.0 mg/kg/injection, schedule: Q04DX002 (ip), vehicle: Klucel (hydroxypropylcellulose) (HPC)
[9] = dose: 400.0 mg/kg/injection, schedule: Q04DX002 (ip), vehicle: Klucel (hydroxypropylcellulose) (HPC)
[10] = dose: 200.0 mg/kg/injection, schedule: Q01DX009 (ip), vehicle: Klucel (hydroxypropylcellulose) (HPC)
[11] = dose: 200.0 mg/kg/injection, schedule: Q04DX003 (ip), vehicle: Klucel (hydroxypropylcellulose) (HPC)
[12] = dose: 400.0 mg/kg/injection, schedule: Q01DX009 (ip), vehicle: Klucel (hydroxypropylcellulose) (HPC)
[13] = dose: 400.0 mg/kg/injection, schedule: Q04DX003 (ip), vehicle: Klucel (hydroxypropylcellulose) (HPC)
[14] = dose: 100.0 mg/kg/injection, schedule: Q01DX009 (ip), vehicle: Klucel (hydroxypropylcellulose) (HPC)
[15] = dose: 50.0 mg/kg/injection, schedule: Q01DX001 (ip), vehicle: saline
[16] = dose: 100.0 mg/kg/injection, schedule: Q01DX001 (ip), vehicle: saline
[17] = dose: 100.0 mg/kg/injection, schedule: Q01DX001 (ip), vehicle: Klucel (hydroxypropylcellulose) (HPC)
[18] = dose: 200.0 mg/kg/injection, schedule: Q01DX001 (ip), vehicle: Klucel (hydroxypropylcellulose) (HPC)
[19] = dose: 400.0 mg/kg/injection, schedule: Q01DX001 (ip), vehicle: Klucel (hydroxypropylcellulose) (HPC)
[20] = dose: 25.0 mg/kg/injection, schedule: Q01DX009 (ip), vehicle: saline with Tween-80
[21] = dose: 50.0 mg/kg/injection, schedule: Q01DX009 (ip), vehicle: saline with Tween-80
[22] = dose: 100.0 mg/kg/injection, schedule: Q01DX009 (ip), vehicle: saline with Tween-80
[23] = dose: 200.0 mg/kg/injection, schedule: Q01DX009 (ip), vehicle: saline with Tween-80
[24] = dose: 200.0 mg/kg/injection, schedule: Q01DX001 (ip), vehicle: saline
[25] = dose: 100.0 mg/kg/injection, schedule: Q04DX002 (ip), vehicle: saline with Tween-80
[26] = dose: 200.0 mg/kg/injection, schedule: Q04DX002 (ip), vehicle: saline with Tween-80
[27] = dose: 400.0 mg/kg/injection, schedule: Q01DX009 (ip), vehicle: saline with Tween-80
[28] = dose: 400.0 mg/kg/injection, schedule: Q04DX002 (ip), vehicle: saline with Tween-80

Measured: T/C

COCCNC1=C(F)C(=O)C(NCCOC)=C(F)C1=O
inactive: dose: 3.12 mg/kg/injection, schedule: Q04DX003 (ip), vehicle: Klucel (hydroxypropylcellulose) (HPC) 90 % of control | dose: 6.25 mg/kg/injection, schedule: Q04DX003 (ip), vehicle: Klucel (hydroxypropylcellulose) (HPC) 111 % of control | dose: 12.5 mg/kg/injection, schedule: Q04DX003 (ip), vehicle: Klucel (hydroxypropylcellulose) (HPC) 98 % of control | dose: 25.0 mg/kg/injection, schedule: Q04DX003 (ip), vehicle: Klucel (hydroxypropylcellulose) (HPC) 95 % of control | dose: 50.0 mg/kg/injection, schedule: Q04DX003 (ip), vehicle: Klucel (hydroxypropylcellulose) (HPC) 95 % of control | [1] 97 % of control | [2] 94 % of control | dose: 225.0 mg/kg/injection, schedule: Q04DX003 (ip), vehicle: Klucel (hydroxypropylcellulose) (HPC) 94 % of control | dose: 335.0 mg/kg/injection, schedule: Q04DX003 (ip), vehicle: Klucel (hydroxypropylcellulose) (HPC) 95 % of control

Cc1ccc(N=Nc2ccc([N+](=O)[O-])cc2)c([N+](=O)[O-])c1
inactive: [3] 96 % of control | [4] 93 % of control | [5] 96 % of control

NCCCNCC1C(c2ccccc2)C1c1ccccc1 (centres undefined)
inactive: dose: 25.0 mg/kg/injection, schedule: Q04DX002 (ip), vehicle: Klucel (hydroxypropylcellulose) (HPC) 100 % of control | [6] 114 % of control

Cc1ccc(S(=O)(=O)N(CCCc2c(C)[nH]c(=S)[nH]c2=O)c2ccccc2)cc1
inactive: [6] 91 % of control | [7] 100 % of control and 91 % of control | [8] 100 % of control and 91 % of control | [9] 100 % of control

O=C(O)c1ccccc1C(=O)Nc1ccccc1F
inactive: [1] 97 % of control | [10] 86 % of control | [11] 92 % of control | [12] 91 % of control | [13] 91 % of control

O=C(Cl)COc1cc(Cl)c(Cl)cc1Cl
inactive: dose: 100.0 mg/kg/injection, schedule: Q04DX002 (ip), vehicle: gum acacia 106 % of control | dose: 200.0 mg/kg/injection, schedule: Q04DX002 (ip), vehicle: gum acacia 110 % of control

Clc1ccc(Sc2ccccc2)cc1
inactive: [1] 105 % of control | [11] 88 % of control | [13] 105 % of control

COc1cc(C(=O)Nc2ccc(F)cc2)cc(OC)c1OC
inactive: [14] 92 % of control | [10] 97 % of control | [12] 94 % of control

CC/C(=C/c1ccc2c(c1)OCO2)[N+](=O)[O-]
inactive: dose: 25.0 mg/kg/injection, schedule: Q01DX001 (ip), vehicle: saline 100 % of control | [15] 100 % of control | [16] 100 % of control

CN(C)C1=CS(=O)(=O)C1
inactive: dose: 75.0 mg/kg/injection, schedule: Q01DX001 (ip), vehicle: saline 94 % of control | dose: 150.0 mg/kg/injection, schedule: Q01DX001 (ip), vehicle: saline 97 % of control

O=C(NCC(O)CCl)c1ccc([N+](=O)[O-])cc1 (centres undefined)
inactive: [17] 95 % of control | [1] 97 % of control | [18] 103 % of control | [11] 105 % of control | [19] 95 % of control | [13] 92 % of control

CC(=O)OC1CC(OC2C(O)CC(OC3C(O)CC(OC4CCC5(C)C(CCC6C5CCC5(C)C(C7=CC(=O)OC7)CCC65O)C4)OC3C)OC2C)OC(C)C1OC1OC(CO)C(O)C(O)C1O (centres undefined)
inactive: dose: 10.0 mg/kg/injection, schedule: Q01DX001 (ip), vehicle: saline 101 % of control

CC(Br)C(=O)Nc1ccc(C(=O)O)c(O)c1 (centres undefined)
inactive: [20] 112 % of control | [21] 98 % of control | [22] 100 % of control and 107 % of control

O=C(Nc1ccc(Cl)c(Cl)c1)OCCN(c1ccccc1)c1ccccc1
inactive: [3] 88 % of control | [4] 97 % of control | [5] 92 % of control

C=C=CC1CCCC1C (centres undefined)
inactive: [21] 110 % of control | [22] 106 % of control | [23] 92 % of control

CCCCCCCCCCCCCCCCNS(=O)(=O)c1ccc(Br)cc1
inactive: [17] 96 % of control | [1] 91 % of control | [18] 93 % of control | [11] 95 % of control | [19] 96 % of control | [13] 103 % of control

CC1Oc2ccccc2OC1NC1=NCCO1 (centres undefined)
inactive: [17] 97 % of control | [1] 100 % of control | [18] 103 % of control | [11] 100 % of control | [19] 102 % of control | [13] 108 % of control

COc1ccc(C(C(C)=O)N2CCN(c3ccccc3)CC2)cc1 (centres undefined)
inactive: dose: 100.0 mg/kg/injection, schedule: Q04DX003 (ip), vehicle: other 98 % of control | dose: 200.0 mg/kg/injection, schedule: Q04DX003 (ip), vehicle: other 95 % of control

Nc1cc(Cl)ccc1O
inactive: [16] 98 % of control | [24] 91 % of control

CCc1ccccc1NC(=O)Oc1cccc(C(F)(F)F)c1
inactive: dose: 100.0 mg/kg/injection, schedule: Q01DX009 (ip), vehicle: saline 104 % of control | dose: 200.0 mg/kg/injection, schedule: Q01DX009 (ip), vehicle: saline 94 % of control | dose: 400.0 mg/kg/injection, schedule: Q01DX009 (ip), vehicle: saline 103 % of control

NC(=S)N/N=C/c1c(Cl)n(-c2ccccc2)c2ccccc12
inactive: [6] 87 % of control | [7] 87 % of control | [8] 93 % of control

Cc1c(C)c(C)c(CNNC(=S)Nc2cccc(Cl)c2)c(C)c1C
inactive: [14] 95 % of control | [10] 91 % of control | [12] 91 % of control

O=C1NC(=O)C(c2ccccc2Cl)N1 (centres undefined)
inactive: [17] 109 % of control | [1] 102 % of control | [18] 118 % of control | [11] 100 % of control | [19] 103 % of control | [13] 98 % of control

Cc1cccc(NC(=O)c2cccc([N+](=O)[O-])c2C(=O)O)c1C
inactive: [7] 103 % of control | [8] 103 % of control | [9] 103 % of control

Cc1cccc(Cl)c1NC(=O)CC#N
inactive: [22] 97 % of control | [25] 97 % of control | [23] 95 % of control | [26] 97 % of control | [27] 100 % of control | [28] 97 % of control

CC1=CC(=O)C=CC1=O
inactive: dose: 5.0 mg/kg/injection, schedule: Q01DX001 (ip), vehicle: saline 107 % of control

O=S(=O)(/N=C1C=C(N2CCOCC2)/C(=N/S(=O)(=O)c2ccccc2)C=C/1N1CCOCC1)c1ccccc1
inactive: dose: 75.0 mg/kg/injection, schedule: Q04DX003 (ip), vehicle: Klucel (hydroxypropylcellulose) (HPC) 97 % of control | [2] 89 % of control | dose: 300.0 mg/kg/injection, schedule: Q04DX003 (ip), vehicle: Klucel (hydroxypropylcellulose) (HPC) 100 % of control

CC(=O)Nc1ccc(S(=O)(=O)Nc2ccc([N+](=O)[O-])cc2)cc1
inactive: [20] 96 % of control | [21] 100 % of control | [22] 98 % of control and 87 % of control | dose: 100.0 mg/kg/injection, schedule: Q04DX003 (ip), vehicle: saline with Tween-80 109 % of control | [23] 95 % of control and 94 % of control | dose: 200.0 mg/kg/injection, schedule: Q04DX003 (ip), vehicle: saline with Tween-80 109 % of control | [27] 97 % of control and 94 % of control | dose: 400.0 mg/kg/injection, schedule: Q04DX003 (ip), vehicle: saline with Tween-80 109 % of control

C(=C\C[n+]1ccccc1)/C[n+]1ccccc1
inactive: [15] 106 % of control | [16] 112 % of control | [24] 106 % of control

O=C(CSc1ncc2ccccn12)c1ccccc1
inactive: [25] 106 % of control | [26] 92 % of control | [28] 95 % of control

c1ccc2c(c1)Cc1cc(CN3CCOCC3)ccc1-2
inactive: dose: 50.0 mg/kg/injection, schedule: Q01DX001 (ip), vehicle: carboxymethylcellulose (CMC) 92 % of control | [3] 100 % of control | [4] 94 % of control | [5] 94 % of control
